The assay concerns mouse macrophage RAW264.7 cells. Nature of the assay: Western blotting of cytokine signalling proteins with or without LPS. Type of assay: cell-based. Particulars: DHMBA 10 μM, 5 hours. The procedure: Cells (1×10^6 cells/10 ml of medium) were cultured in a DMEM culture medium for 3 days until they reached subconfluence. After that, cells were cultured for another 5 hours in the control group (1% ethanol; DHMBA 0 M) and in the DHMBA-treated group (10 μM) with or without of LPS (100 ng/ml). After the culture, cell lysates were obtained for Western blot assay using specific antibodies against COX-1, COX-2, MAPK, phospho-MAPK, NF-κB p65, STAT3, and β-actin, as shown in FIG. 3.
Band intensities are presented as fold increase over the controls, under the following conditions: no LPS (FIG. 8B), LPS (100 ng/ml) alone (FIG. 8C), and LPS (100 ng/ml) plus DHMBA (10 μM) (FIG. 8D). Data are presented as the mean±SD of values obtained from 4 dishes using different cell preparations. *: Significant difference (p<0.01) versus the control without LPS (FIG. 8C). *: Significant difference (p<0.01) versus the control with LPS but without DHMBA (FIG. 8D). Statistical analysis was performed using 1-way ANOVA with Tukey-Kramer post-test.
To measure the expression levels of Cox-1, Cox-2, NF-κB p65, and STAT3, which are involved in cytokine signaling, RAW264.7 cells (1×10^6 cells/10 ml of 100 mm dish) were cultured in a DMEM culture medium containing 10% FS, 1% P/S, and 1% fungizone for 3 days until they reached subconfluence, and then cultured for another 5 hours in the control group (1% ethanol; DHMBA 0 μM as final concentration) and in the DHMBA-treated group (10 μM) with or without LPS (100 ng/ml in the medium). After the culture, the cells attached to the dish were scraped off with a cell lysis buffer and collected for measurement as described in the “Western blotting” section.
RAW264.7 cells (1×10^6 cells/10 ml of 100 mm dish) were cultured for 3 days in 10% FBS, 1% P/S (1% ethanol), or in the DHMBA-treated group (10 μM). After the culture, the dishes were washed with cold PBS (10 ml) to remove floating and dead cells. The cell lysis buffer (Cell Signaling Technology, Inc., Danvers, MA, USA) supplemented with protease/protein phosphatase inhibitor (Roche Diagnostics, Indianapolis, IN, USA) was added to the cells to collect cell lysates of the adherent cells as described in the previous study. The cell lysates were centrifuged at 17,000×g, 4° C. for 10 min. Protein concentrations in the supernatants were measured using Bio-Rad Protein Assay Dye (Bio-Rad Laboratories, Inc., Hercules, CA, USA) with bovine serum albumin as a standard. The cell lysates were stored at −80° C. until use. The supernatant proteins (40 μg/lane) were separated by SDS-polyacrylamide gel electrophoresis (12% SDS-PAGE) and transferred to a PVDF membrane. The transferred membranes were immunoblotted with specific antibodies against various proteins, including Ras (cat. no. 3339, rabbit), Akt (cat. no. 9272, rabbit), mitogen-activated protein kinase (MAPK; cat. no. 4695, rabbit), phosphorylated MAPK (cat. no. 4370, rabbit), mechanistic target of rapamycin (mTOR; cat. no. 4517, mouse), Rb (cat. no. 9309, mouse), p21 (cat. no. 2947, rabbit), STAT3 (cat. no. 12640, rabbit), COX-1 (cat. no. 48415), COX-2 (cat. no. 4842), and β-actin (cat. no. 3700, mouse), all of which were purchased from Cell Signaling Technology, Inc. (Danvers, MA, USA). Specific antibodies for p53 (cat. no. sc-126, mouse) and NF-κB p65 (cat. no. sc-109, rabbit) were purchased from Santa Cruz Biotechnology Inc. (Santa Cruz, CA, USA). Additionally, rabbit anti-regucalcin antibody (cat. no. HPA029103, rabbit) was obtained from Sigma-Aldrich. Target proteins were incubated overnight at 4° C. with one of the above primary antibodies (1:1,000). After incubation, the membranes were further incubated with horseradish peroxidase-conjugated secondary antibodies (Santa Cruz Biotechnology Inc., cat. no. sc-2005 (mouse) or sc-2305 (rabbit); dilution 1:2000) for 60 min at room temperature, and protein bands were detected using chemiluminescence substrates (cat. no. 34577, Thermo Fisher Scientific Inc., Rockford, IL, USA) on X-ray films. […]
(In general: A western blot detects proteins with antibodies after separation by electrophoresis.)

This note sets out measurements from patent US20260041649A1, “ANTI-INFLAMMATORY AGENT” (WATANABE OYSTER LABORATORY, CO., LTD., priority 2023, published 2026).

As to `COc1c(O)cc(CO)cc1O` [DHMBA, 3,5-dihydroxy-4-methoxybenzyl alcohol], for the setting “LPS 100 ng/ml”, the “LPS-increased level of MAPK” value is “suppressed”, the “LPS-increased level of NF-κB p65” value is listed as “suppressed”, the “LPS-increased level of STAT3” value is listed as “suppressed” and the “LPS-increased level of phospho-MAPK” value is on record as “suppressed”. For the same compound, for the setting “without LPS”, the “level of COX-1” value is “not altered”, the “level of COX-2” value is listed as “not altered”, the “level of MAPK” value is listed as “not altered” and the “level of NF-κB p65” value is recorded as “not altered”. Further, for the setting “without LPS”, the “level of STAT3” value is given as “not altered” and the “level of phospho-MAPK” value is on record as “not altered”.
